Reference: patent publication US20110015080A1, “Solution-based methods for RNA expression profiling” (MASSACHUSETTS INSTITUTE OF TECHNOLOGY, priority 2005, published 2011)
“And” between values parts separate entries of the source, which are not always exact repeats. Equal entries are not always repeated. “Also recorded” adds a separate entry of the source.

Key:
[1] = system: HL60 (human promyelocytic leukemia) cells; assay: LMA-FlexMAP analysis of microtiter well cultures of HL60 cells treated with tretinoin or DMSO, KNN classification
[2] = system: HL-60 acute myeloblastic leukemia cells; conditions: treatment during a course of 5 days (Stegmaier et al., 2004); cited from earlier work
[3] = HL60 microtiter plate wells tretinoin40-47 (replicates)

CC1=C(/C=C/C(C)=C/C=C/C(C)=C/C(=O)O)C(C)(C)CCC1 [tretinoin, all-trans-retinoic acid]
NM_000698 LUA#14 FlexMap level [1, 3]: 45.5 and 156 and 269 and 394 and 342 and 297.5 and 363 and 352
NM_000875 LUA#55 FlexMap level [1, 3]: 184 and 1002 and 1389.5 and 1772 and 1303 and 1192 and 1271 and 810
NM_000884 LUA#81 FlexMap level [1, 3]: 82 and 506 and 875 and 897 and 732.5 and 789 and 805 and 513.5
NM_000962 LUA#7 FlexMap level [1, 3]: 63.5 and 391 and 761 and 776 and 470 and 646.5 and 671.5 and 452
NM_001034 LUA#67 FlexMap level [1, 3]: 65 and 447 and 989 and 779 and 733.5 and 645 and 1063 and 476
NM_001101 LUA#34 FlexMap level [1, 3]: 260.5 and 1606 and 2206 and 2257 and 1647 and 1943 and 1881 and 904
NM_001469 LUA#79 FlexMap level [1, 3]: 65 and 320.5 and 885 and 739 and 765 and 734 and 561 and 370
NM_001498 LUA#18 FlexMap level [1, 3]: 126.5 and 890.5 and 1632 and 1563.5 and 1134 and 1467 and 1510 and 888
NM_001684 LUA#23 FlexMap level [1, 3]: 884 and 3012 and 3316.5 and 3512 and 3036 and 2755.5 and 2662 and 1478
NM_001948 LUA#84 FlexMap level [1, 3]: 255 and 1430 and 2470.5 and 2273.5 and 1891 and 2131 and 2132.5 and 1104
NM_001974 LUA#11 FlexMap level [1, 3]: 38.5 and 98 and 351 and 256 and 258 and 253.5 and 286.5 and 224
NM_002166 LUA#25 FlexMap level [1, 3]: 411.5 and 1693.5 and 2999 and 2964 and 2068 and 1985 and 2518 and 1239
NM_002358 LUA#53 FlexMap level [1, 3]: 64 and 339 and 572 and 611 and 366 and 481 and 531 and 433
NM_002467 LUA#90 FlexMap level [1, 3]: 383 and 983.5 and 1643 and 1800 and 1920 and 1518 and 1725 and 1034
NM_002468 LUA#40 FlexMap level [1, 3]: 48 and 285.5 and 324 and 728 and 896.5 and 343 and 632 and 464
NM_002539 LUA#74 FlexMap level [1, 3]: 94 and 559 and 886 and 952 and 715 and 861.5 and 822 and 535
NM_002624 LUA#36 FlexMap level [1, 3]: 53 and 180.5 and 397 and 381 and 330.5 and 336 and 400.5 and 394
NM_002664 LUA#38 FlexMap level [1, 3]: 73 and 478 and 906 and 798 and 599 and 773 and 748 and 512
NM_002970 LUA#42 FlexMap level [1, 3]: 92 and 298 and 598 and 589 and 622.5 and 577.5 and 586 and 478
NM_002982 LUA#45 FlexMap level [1, 3]: 286 and 2331 and 2514 and 4037 and 4231 and 2722 and 2898 and 1696.5
NM_003132 LUA#68 FlexMap level [1, 3]: 41 and 126 and 264.5 and 264 and 195.5 and 257 and 296 and 327.5
NM_003172 LUA#19 FlexMap level [1, 3]: 818 and 3200.5 and 3348 and 3577.5 and 2983 and 2898 and 2747 and 1471
NM_003332 LUA#43 FlexMap level [1, 3]: 274 and 646 and 1341.5 and 1324 and 1984.5 and 1651 and 2226 and 1241.5
NM_003581 LUA#62 FlexMap level [1, 3]: 62.5 and 372 and 962 and 808 and 751 and 735.5 and 801 and 515
NM_003644 LUA#17 FlexMap level [1, 3]: 69 and 255 and 415 and 428 and 359 and 374 and 395 and 302
NM_003752 LUA#82 FlexMap level [1, 3]: 115.5 and 536.5 and 1061 and 1015.5 and 768.5 and 1020 and 912.5 and 596
NM_003825 LUA#8 FlexMap level [1, 3]: 81.5 and 192.5 and 338 and 383.5 and 307.5 and 331 and 502 and 476.5
NM_003879 LUA#24 FlexMap level [1, 3]: 225 and 1355.5 and 1937.5 and 1983.5 and 1275 and 1677 and 1564 and 923
NM_004079 LUA#21 FlexMap level [1, 3]: 350 and 2202 and 3008 and 3030.5 and 2326 and 2816 and 2701 and 1488
NM_004095 LUA#59 FlexMap level [1, 3]: 72 and 383 and 714 and 665 and 496.5 and 650.5 and 593.5 and 442
NM_004106 LUA#44 FlexMap level [1, 3]: 47 and 142 and 253.5 and 302 and 321 and 271 and 273.5 and 267
NM_004134 LUA#76 FlexMap level [1, 3]: 78 and 432.5 and 873 and 866 and 531 and 759 and 744 and 493
NM_004152 LUA#31 FlexMap level [1, 3]: 58 and 337 and 710 and 811 and 628.5 and 782 and 652 and 408.5
NM_004514 LUA#46 FlexMap level [1, 3]: 176 and 834 and 1159.5 and 1224 and 964 and 992 and 1017 and 626
NM_004526 LUA#88 FlexMap level [1, 3]: 642 and 1081.5 and 1122 and 840 and 1033 and 1012 and 641.5
NM_004602 LUA#32 FlexMap level [1, 3]: 458.5 and 678 and 736.5 and 1957 and 1765.5 and 664 and 571.5 and 773.5
NM_004631 LUA#52 FlexMap level [1, 3]: 86.5 and 322 and 705 and 629 and 524 and 633 and 667 and 532
NM_004723 LUA#20 FlexMap level [1, 3]: 89 and 620 and 1056 and 982 and 761 and 886 and 853 and 494.5
NM_004741 LUA#89 FlexMap level [1, 3]: 131 and 383 and 972 and 1003 and 933 and 920 and 1126 and 571
NM_004759 LUA#37 FlexMap level [1, 3]: 40.5 and 67.5 and 186.5 and 169 and 134.5 and 142 and 145 and 190
NM_004782 LUA#4 FlexMap level [1, 3]: 163 and 811 and 1306 and 1264 and 1063.5 and 1077 and 1094 and 639
NM_005008 LUA#77 FlexMap level [1, 3]: 73 and 425 and 885 and 923 and 779.5 and 801 and 828 and 525
NM_005375 LUA#86 FlexMap level [1, 3]: 273 and 1380 and 2455 and 2357.5 and 2068 and 2193 and 2264 and 1273.5
NM_005566 LUA#85 FlexMap level [1, 3]: 129.5 and 862.5 and 1842.5 and 1550 and 1000 and 1282 and 1196 and 592
NM_005736 LUA#1 FlexMap level [1, 3]: 92 and 522 and 909 and 1432 and 1896 and 847 and 1205.5 and 695
NM_005914 LUA#60 FlexMap level [1, 3]: 303 and 1363 and 2538.5 and 2273 and 1739 and 1694 and 1933.5 and 1154.5
NM_005915 LUA#72 FlexMap level [1, 3]: 48 and 300 and 495 and 474 and 315.5 and 496 and 401.5 and 256.5
NM_005952 LUA#66 FlexMap level [1, 3]: 104 and 573 and 891 and 961 and 623.5 and 847.5 and 775 and 571
NM_005980 LUA#73 FlexMap level [1, 3]: 35.5 and 83 and 102 and 162 and 149 and 95 and 114 and 168
NM_006019 LUA#35 FlexMap level [1, 3]: 41 and 192.5 and 363 and 400.5 and 353 and 361 and 402 and 332
NM_006138 LUA#56 FlexMap level [1, 3]: 70 and 325.5 and 443 and 659.5 and 488 and 437 and 429 and 341
NM_006432 LUA#27 FlexMap level [1, 3]: 90 and 394 and 854.5 and 800 and 695 and 670 and 719 and 450
NM_006452 LUA#71 FlexMap level [1, 3]: 207.5 and 1176 and 1736 and 1656.5 and 1374 and 1531 and 1587 and 911.5
NM_006457 LUA#13 FlexMap level [1, 3]: 36 and 51 and 83 and 94 and 84 and 95 and 132 and 200
NM_006773 LUA#47 FlexMap level [1, 3]: 164 and 717 and 1137 and 1120.5 and 783 and 937.5 and 907 and 576.5
NM_006948 LUA#51 FlexMap level [1, 3]: 34 and 49 and 82 and 95 and 83 and 79.5 and 85.5 and 106.5
NM_006985 LUA#58 FlexMap level [1, 3]: 90 and 720 and 1223 and 1310 and 813 and 1136.5 and 983 and 635
NM_007282 LUA#16 FlexMap level [1, 3]: 778.5 and 3067.5 and 3626 and 3678 and 3097 and 3055 and 2958.5 and 1505
NM_007331 LUA#50 FlexMap level [1, 3]: 88 and 474 and 915.5 and 927.5 and 770 and 739 and 835 and 583
NM_013402 LUA#54 FlexMap level [1, 3]: 114 and 705 and 1150 (2×) and 806 and 1051.5 and 1087 and 711
NM_014288 LUA#48 FlexMap level [1, 3]: 154 and 477.5 and 801 and 816 and 527.5 and 706 and 650 and 453
NM_014333 LUA#26 FlexMap level [1, 3]: 180.5 and 949.5 and 1577 and 1549 and 1309 and 1337 and 1390 and 811
NM_014366 LUA#61 FlexMap level [1, 3]: 383 and 1773 and 2236 and 2380 and 1850 and 1787.5 and 1681.5 and 1009.5
NM_014573 LUA#70 FlexMap level [1, 3]: 43 and 143 and 320 and 325 and 274 and 243 and 407.5 and 300
NM_014962 LUA#5 FlexMap level [1, 3]: 152.5 and 726 and 1269 and 1290 and 1213 and 1076 and 1134 and 717
NM_015201 LUA#57 FlexMap level [1, 3]: 182 and 1154 and 1768 and 1714 and 1251 and 1398.5 and 1507 and 930.5
NM_016061 LUA#9 FlexMap level [1, 3]: 134 and 674 and 1086 and 1267.5 and 863 and 975 and 1073.5 and 741
NM_017440 LUA#49 FlexMap level [1, 3]: 101 and 405.5 and 707 and 774 and 716 and 607 and 693 and 477
NM_018115 LUA#63 FlexMap level [1, 3]: 746.5 and 3193 and 3722 and 4141 and 3225.5 and 3292.5 and 3054 and 1569
NM_018164 LUA#69 FlexMap level [1, 3]: 52 and 170 and 429 and 380 and 304.5 and 304 and 358.5 and 234
NM_018217 LUA#3 FlexMap level [1, 3]: 189 and 990 and 1514 and 1581 and 1499 and 1286 and 1386 and 854.5
NM_018256 LUA#83 FlexMap level [1, 3]: 102 and 717 and 1252 and 1104 and 692.5 and 1077 and 929 and 470
NM_018890 LUA#33 FlexMap level [1, 3]: 562 and 2557 and 3812.5 and 4178 and 4310 and 3724.5 and 2984 and 1462.5
NM_019058 LUA#75 FlexMap level [1, 3]: 258 and 1804 and 2807 and 2882 and 2288 and 2430 and 2201 and 1184
NM_020117 LUA#78 FlexMap level [1, 3]: 236.5 and 1585 and 2193 and 2242.5 and 1690 and 1988 and 1734 and 848.5
NM_021103 LUA#41 FlexMap level [1, 3]: 591.5 and 1730 and 2238 and 2731 and 2283 and 1975 and 1828.5 and 1027
NM_021203 (LUA#80) FlexMap level [1, 3]: 53 and 171 and 386 and 377.5 and 283.5 and 348 and 279
NM_021974 LUA#64 FlexMap level [1, 3]: 268 and 1606 and 2307 and 2301 and 1472 and 1996 and 1890 and 1117.5
NM_024045 LUA#65 FlexMap level [1, 3]: 85 and 495 and 831 and 833.5 and 527 and 681 and 728.5 and 471
NM_032571 LUA#15 FlexMap level [1, 3]: 31 and 109 and 203 and 222.5 and 165.5 and 191 and 270.5 and 253.5
NM_173823 LUA#6 FlexMap level [1, 3]: 84 and 594.5 and 1106.5 and 1168.5 and 1130.5 and 1080 and 1163 and 807
TFRC LUA#92 FlexMap level [1, 3]: 89 and 400 and 794 and 910.5 and 811 and 827.5 and 1042 and 592
NM_021203 (LUA#80) FlexMap level ([1]; HL60 microtiter well cultures, one value per tretinoin well): 416 and 381.5 and 345 and 387 and 409 and 426 and 427 and 412
differentiation of HL-60 cells [2]: potent inducer of neutrophilic differentiation; also recorded: differentiate with increasing neutrophil characteristics
